Where no end group is shown, it is not given here. The star is where a group is joined. FITC = O=C1OC2(c3ccc(O)cc3Oc3cc(O)ccc32)c2ccc(NC(=S)*)cc21
Tests used:
IRS1 = molecular target: T1, IRS1 (Mus musculus, UniProt P35569); test: Effect of AF1 peptide on IRS1 phosphorylation at S302 in primary mouse hepatocytes (Western blot); type: cell-based; conditions: WT primary hepatocytes
T1 construct: increased IRS1 protein levels by 50% (p<0.05) in WT primary hepatocytes; endogenous in cells; host or cells: primary mouse hepatocytes (C57BL/6J background; WT, ERα F/F or ERα LivKO)
T1 sequence (P35569 1-1233): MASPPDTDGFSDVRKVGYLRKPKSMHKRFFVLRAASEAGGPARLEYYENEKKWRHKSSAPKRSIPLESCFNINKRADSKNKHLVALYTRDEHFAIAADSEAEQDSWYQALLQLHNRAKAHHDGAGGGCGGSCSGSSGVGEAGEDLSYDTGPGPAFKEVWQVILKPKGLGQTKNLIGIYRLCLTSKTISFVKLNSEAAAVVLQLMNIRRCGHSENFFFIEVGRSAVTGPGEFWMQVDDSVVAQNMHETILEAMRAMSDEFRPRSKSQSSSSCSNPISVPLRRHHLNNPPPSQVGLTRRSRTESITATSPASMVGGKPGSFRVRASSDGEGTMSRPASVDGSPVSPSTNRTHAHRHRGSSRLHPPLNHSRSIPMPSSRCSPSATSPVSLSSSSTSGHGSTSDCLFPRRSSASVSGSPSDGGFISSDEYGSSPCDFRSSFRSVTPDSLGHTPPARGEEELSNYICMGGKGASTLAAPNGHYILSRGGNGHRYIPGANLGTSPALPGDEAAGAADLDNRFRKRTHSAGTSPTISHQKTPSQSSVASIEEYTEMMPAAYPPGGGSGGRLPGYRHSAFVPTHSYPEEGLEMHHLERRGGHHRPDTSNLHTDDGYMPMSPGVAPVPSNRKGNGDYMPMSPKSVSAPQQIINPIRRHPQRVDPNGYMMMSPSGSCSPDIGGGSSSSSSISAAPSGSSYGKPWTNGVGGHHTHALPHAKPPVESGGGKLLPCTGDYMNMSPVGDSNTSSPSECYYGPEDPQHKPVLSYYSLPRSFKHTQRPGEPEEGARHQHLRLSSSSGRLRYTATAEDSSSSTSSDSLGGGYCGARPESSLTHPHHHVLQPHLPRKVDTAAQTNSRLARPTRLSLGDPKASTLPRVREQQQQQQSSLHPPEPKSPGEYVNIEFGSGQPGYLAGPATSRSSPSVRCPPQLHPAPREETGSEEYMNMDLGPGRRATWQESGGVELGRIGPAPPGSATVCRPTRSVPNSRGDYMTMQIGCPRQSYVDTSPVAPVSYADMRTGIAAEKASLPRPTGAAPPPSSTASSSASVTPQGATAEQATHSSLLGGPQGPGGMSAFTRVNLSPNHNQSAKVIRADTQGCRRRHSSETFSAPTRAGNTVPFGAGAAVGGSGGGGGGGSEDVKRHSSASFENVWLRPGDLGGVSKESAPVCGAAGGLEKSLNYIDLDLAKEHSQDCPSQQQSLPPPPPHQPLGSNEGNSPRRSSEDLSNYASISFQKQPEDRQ
Method: (§1) Primary hepatocytes isolation and cell culture. Primary hepatocytes were isolated. Male mice at age of 8-12 weeks were infused with a perfusion buffer A (calcium and magnesium-free HBSS supplemented with 10 mM HEPES, […], 1 mM glucose, and 1% penicillin-streptomycin, pH 7.4) through portal vein for 6-8 min. Then perfusion buffer A was changed to buffer B (calcium and magnesium-free HBSS supplemented with 10 mM HEPES, 1 mM CaCl2), 1 mM glucose, 1% penicillin-streptomycin, and 0.5 mg/mL collagenase II, pH 7.4). […] Liver cells were suspended and passed through a 70 μm cell strainer, followed by centrifuge at 1700 rpm for 2 min. Pellets were resuspended with Percoll at final concentration of 36% and centrifuged at 1800 rpm for 6 min. The hepatocyte pellet was washed and suspended with DMEM supplemented with 10% FBS and 1% penicillin-streptomycin in collagen-coated plates. The HepG2 cell line was purchased from Abcam and cultured with DMEM medium supplemented with 10% FBS and 1% penicillin-streptomycin in collagen-coated plates. The human embryo kidney (HEK) 293 cell line was purchased from Sigma and cultured with DMEM medium supplemented with 10% FBS and 1% penicillin-streptomycin. FBS-free DMEM medium was used to culture cells during the experiments.
(§2) Co-immunoprecipitation and Western blotting analysis. […] Protein bands were detected using a ChemiDoc image system.

[1] = test system: insulin signaling (IRS1, pAKT); test: Insulin sensitivity in WT primary mouse hepatocytes (IRS1, insulin-stimulated AKT phosphorylation); type: cell-based
Method: as §1, §2

Sequence: YGRKKRRQRRRTKASGMALLHEPLNRPQLKIPLERDSSKPAVYNY ({FITC}-YGRKKRRQRRRTKASGMALLHEPLNRPQLKIPLERDSSKPAVYNY) [AF1 peptide]
- decrease in pIRS1-S302 (IRS1): 75%
- increase in IRS1 protein levels (IRS1; FIG. 6G): 50%
- enhancement in insulin-stimulated AKT phosphorylation at S473 [1]: 210%
- enhancement in insulin-stimulated AKT phosphorylation at T308 [1]: 82%
- increase in IRS1 protein levels ([1]; FIG. 6J): 90%

From patent US20260274922A1, “SYNTHETIC ESTROGEN RECEPTOR (ER)-DERIVED PEPTIDE” (THE TEXAS A&M UNIVERSITY SYSTEM, priority 2023, published 2026)
